pIC50: −log10 of the molar value. Activity calls are given as the source filed them. The calls were made as follows: active = viability on the fitted dose curve at most 10% of control; inactive = the rest.
System: KRAS-mutant PDC tumor spheroid with HUVEC/MSC, viability
Assay: Anticancer human tumor 327498-153-R-J2-PDC patient-derived uterine carcinosarcoma cell line growth inhibition [KRAS2]
Details: for pIC50: curve of first compound; for viability, T/C: stronger effect = lower value
How it was run: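 Combination screen of spheroid viability in tumor-cell co-cultures with endothelial (HUVEC) and mesenchymal stem cell stroma. Each agent was tested in half-log dilutions, topping at clinical Cmax or at 10 microM without a known Cmax.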

[1] = second compound 0.1 µM, first compound 0.000316 µM
[2] = second compound 0.1 µM, first compound 0.001 µM
[3] = second compound 0.1 µM, first compound 0.00316 µM
[4] = second compound 0.1 µM, first compound 0.01 µM
[5] = second compound 0.1 µM, first compound 0.0316 µM
[6] = second compound 0.316 µM, first compound 0.000316 µM
[7] = second compound 0.316 µM, first compound 0.001 µM
[8] = second compound 0.316 µM, first compound 0.00316 µM
[9] = second compound 0.316 µM, first compound 0.01 µM
[10] = second compound 0.316 µM, first compound 0.0316 µM
[11] = second compound 1 µM, first compound 0.000316 µM
[12] = second compound 1 µM, first compound 0.001 µM
[13] = second compound 1 µM, first compound 0.00316 µM
[14] = second compound 1 µM, first compound 0.01 µM
[15] = second compound 1 µM, first compound 0.0316 µM
[16] = second compound 3.16 µM, first compound 0.000316 µM
[17] = second compound 3.16 µM, first compound 0.001 µM
[18] = second compound 3.16 µM, first compound 0.00316 µM
[19] = second compound 3.16 µM, first compound 0.01 µM
[20] = second compound 3.16 µM, first compound 0.0316 µM
[21] = second compound 10 µM, first compound 0.000316 µM
[22] = second compound 10 µM, first compound 0.001 µM
[23] = second compound 10 µM, first compound 0.00316 µM
[24] = second compound 10 µM, first compound 0.01 µM
[25] = second compound 10 µM, first compound 0.0316 µM
[26] = second compound 0.1 µM, first compound 0.1 µM
[27] = second compound 0.316 µM, first compound 0.1 µM
[28] = second compound 1 µM, first compound 0.1 µM
[29] = second compound 3.16 µM, first compound 0.1 µM
[30] = second compound 10 µM, first compound 0.1 µM
[31] = second compound 0.1 µM, first compound 0.316 µM
[32] = second compound 0.1 µM, first compound 1 µM
[33] = second compound 0.1 µM, first compound 3.16 µM
[34] = second compound 0.1 µM, first compound 10 µM
[35] = second compound 0.316 µM, first compound 0.316 µM
[36] = second compound 0.316 µM, first compound 1 µM
[37] = second compound 0.316 µM, first compound 3.16 µM
[38] = second compound 0.316 µM, first compound 10 µM
[39] = second compound 1 µM, first compound 0.316 µM
[40] = second compound 1 µM, first compound 1 µM
[41] = second compound 1 µM, first compound 3.16 µM
[42] = second compound 1 µM, first compound 10 µM
[43] = second compound 3.16 µM, first compound 0.316 µM
[44] = second compound 3.16 µM, first compound 1 µM
[45] = second compound 3.16 µM, first compound 3.16 µM
[46] = second compound 3.16 µM, first compound 10 µM
[47] = second compound 10 µM, first compound 0.316 µM
[48] = second compound 10 µM, first compound 1 µM
[49] = second compound 10 µM, first compound 3.16 µM
[50] = second compound 10 µM, first compound 10 µM
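For pIC50 in this document: spheroids exposed to agents for seven days before reading.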
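For viability, T/C in this document: spheroids exposed to agents for seven days before reading; 100% = DMSO vehicle wells so lower means fewer viable cells.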

CC(=O)Nc1cccc(-n2c(=O)n(C3CC3)c(=O)c3c(Nc4ccc(I)cc4F)n(C)c(=O)c(C)c32)c1 + CC1OCC2(CCN(c3cnc(Sc4ccnc(N)c4Cl)c(N)n3)CC2)C1N gave a pIC50 (second compound 0.1 µM) of 8.78, a pIC50 (second compound 0.316 µM) of 9.31 and a pIC50 (second compound 1 µM) of over 10.00. It also gave a pIC50 (second compound 3.16 µM) of over 10.00, a pIC50 (second compound 10 µM) of over 10.00 and a viability, T/C (second compound 0.1 µM, first compound 0.0001 µM) of 75.2%. The viability, T/C [1] was 58.4%, the viability, T/C [2] was 50.2% and the viability, T/C [3] was 46.5%. The viability, T/C [4] was 44.7%, the viability, T/C [5] was 26.3% and the viability, T/C (second compound 0.316 µM, first compound 0.0001 µM) was 52.7%. The viability, T/C [6] was 52.4%, the viability, T/C [7] was 48.2% and the viability, T/C [8] was 40.8%. For the same compound, the viability, T/C [9] was 35%, the viability, T/C [10] was 22.8% and the viability, T/C (second compound 1 µM, first compound 0.0001 µM) was 41%. The viability, T/C [11] was 35.2%, the viability, T/C [12] was 34.9% and the viability, T/C [13] was 29.7%. For the same compound, the viability, T/C [14] was 26.8%, the viability, T/C [15] was 16.1% and the viability, T/C (second compound 3.16 µM, first compound 0.0001 µM) was 31.1%. The viability, T/C [16] was 26.9%, the viability, T/C [17] was 22.1% and the viability, T/C [18] was 22.1%. For the same compound, the viability, T/C [19] was 17.2%, the viability, T/C [20] was 13.1% and the viability, T/C (second compound 10 µM, first compound 0.0001 µM) was 22.8%. The viability, T/C [21] was 21.3%, the viability, T/C [22] was 21.6% and the viability, T/C [23] was 15.8%. The viability, T/C [24] was 13.9% and the viability, T/C [25] was 11.3%.
In the case of CN(C)C/C=C/C(=O)Nc1cc2c(Nc3ccc(F)c(Cl)c3)ncnc2cc1O[C@H]1CCOC1 + CC1OCC2(CCN(c3cnc(Sc4ccnc(N)c4Cl)c(N)n3)CC2)C1N, the pIC50 (second compound 0.1 µM) was under 7.00, the pIC50 (second compound 0.316 µM) was under 7.00 and the pIC50 (second compound 1 µM) was under 7.00. For the same compound, the pIC50 (second compound 3.16 µM) was over 9.50, the pIC50 (second compound 10 µM) was 9.37 and the viability, T/C [1] was 75.6%. For the same compound, the viability, T/C [2] was 82%, the viability, T/C [3] was 71% and the viability, T/C [4] was 71%. It also gave a viability, T/C [5] of 69.3%, a viability, T/C [26] of 56.4% and a viability, T/C [6] of 62.8%. The viability, T/C [7] was 60.4%, the viability, T/C [8] was 53.5% and the viability, T/C [9] was 53.1%. For the same compound, the viability, T/C [10] was 51.2%, the viability, T/C [27] was 53% and the viability, T/C [11] was 106%. For the same compound, the viability, T/C [12] was 109%, the viability, T/C [13] was 103% and the viability, T/C [14] was 104%. It also gave a viability, T/C [15] of 99%, a viability, T/C [28] of 91.7% and a viability, T/C [16] of 44%. For the same compound, the viability, T/C [17] was 42.1%, the viability, T/C [18] was 37% and the viability, T/C [19] was 40.7%. For the same compound, the viability, T/C [20] was 32.7%, the viability, T/C [29] was 31.9% and the outcome [21] was “inactive”. The outcome [22] was “inactive”, the viability, T/C [23] was 44% and the outcome [24] was “inactive”. For the same compound, the viability, T/C [25] was 37.3% and the viability, T/C [30] was 33.5%.
For COC(=O)c1ccc2c(C(=Nc3ccc(N(C)C(=O)CN4CCN(C)CC4)cc3)c3ccccc3)c(O)[nH]c2c1 + CC1OCC2(CCN(c3cnc(Sc4ccnc(N)c4Cl)c(N)n3)CC2)C1N, the pIC50 (second compound 0.1 µM) was 6.25, the pIC50 (second compound 0.316 µM) was 6.80 and the pIC50 (second compound 1 µM) was over 7.50. It also gave a pIC50 (second compound 3.16 µM) of over 7.50, a pIC50 (second compound 10 µM) of over 7.50 and a viability, T/C [5] of 76%. It also gave a viability, T/C [26] of 68.8%, a viability, T/C [31] of 58% and a viability, T/C [32] of 43.8%. It also gave a viability, T/C [33] of 26%, a viability, T/C [34] of 26.8% and a viability, T/C [10] of 57.1%. For the same compound, the viability, T/C [27] was 50.7%, the viability, T/C [35] was 44.7% and the viability, T/C [36] was 34.5%. It also gave a viability, T/C [37] of 16.2%, a viability, T/C [38] of 18.8% and a viability, T/C [15] of 40.4%. For the same compound, the viability, T/C [28] was 41.9%, the viability, T/C [39] was 33.3% and the viability, T/C [40] was 20.6%. For the same compound, the viability, T/C [41] was 14.5%, the viability, T/C [42] was 11.4% and the viability, T/C [20] was 36%. For the same compound, the viability, T/C [29] was 33.4%, the viability, T/C [43] was 23.5% and the viability, T/C [44] was 14.1%. For the same compound, the viability, T/C [45] was 11%, the viability, T/C [46] was 10.1% and the viability, T/C [25] was 28%. The viability, T/C [30] was 27.9%, the viability, T/C [47] was 20.5% and the viability, T/C [48] was 13.3%. It also gave a viability, T/C [49] of 11.4% and a viability, T/C [50] of 9.36%.
O=C(c1cc(Cc2n[nH]c(=O)c3ccccc23)ccc1F)N1CCN(C(=O)C2CC2)CC1 + CC1OCC2(CCN(c3cnc(Sc4ccnc(N)c4Cl)c(N)n3)CC2)C1N gave a pIC50 (second compound 0.1 µM) of 5.78, a pIC50 (second compound 0.316 µM) of 5.97 and a pIC50 (second compound 1 µM) of 6.62. For the same compound, the pIC50 (second compound 3.16 µM) was over 7.50, the pIC50 (second compound 10 µM) was over 7.50 and the viability, T/C [5] was 81.3%. The viability, T/C [26] was 83.8%, the viability, T/C [31] was 75% and the viability, T/C [32] was 62.6%. It also gave a viability, T/C [33] of 34.8%, a viability, T/C [34] of 19.4% and a viability, T/C [10] of 70.4%. The viability, T/C [27] was 68.6%, the viability, T/C [35] was 62.6% and the viability, T/C [36] was 52.2%. The viability, T/C [37] was 31.7%, the viability, T/C [38] was 17.5% and the viability, T/C [15] was 104%. For the same compound, the viability, T/C [28] was 60.7%, the viability, T/C [39] was 44.2% and the viability, T/C [40] was 40.9%. The viability, T/C [41] was 21.9%, the viability, T/C [42] was 14.2% and the viability, T/C [20] was 40.5%. For the same compound, the viability, T/C [29] was 37.6%, the viability, T/C [43] was 38.1% and the viability, T/C [44] was 28.7%. It also gave a viability, T/C [45] of 17.9%, a viability, T/C [46] of 13.8% and a viability, T/C [25] of 36.7%. For the same compound, the viability, T/C [30] was 31.8%, the viability, T/C [47] was 27.1% and the viability, T/C [48] was 25.3%. The viability, T/C [49] was 15.9% and the viability, T/C [50] was 11.4%.

— PubChem BioAssay AID1963867 (Molecular Pharmacology Branch, DTP, NCI, 2024)
